Experimental data: the supplement of paper PMC11061612

Key:
[1] = system: RT-112 (Bladder Carcinoma); assay: combination Emax (second highest fraction inhibited in the dose matrix, 72 h); higher = more inhibition; extreme values may be limits of the assay
Method in brief: (§1)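 After 24 hours at 37°C and 5% CO2 in 1536-well plates, cells in DMEM/F12 or RPMI plus 10% FBS received two-drug dose matrices for 72 hours. Viability came from CellTiter-Glo 2.0 luminescence and was scaled as inhibition, anchored at 0 by vehicle wells and at 1 by blank wells. Combination Emax is taken as the second-highest inhibition in the matrix, and Bliss excess as the observed combination effect less EA + EB − EA·EB, with EA and EB the single-agent effects.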

[2] = system: LoVo (Colorectal Carcinoma); assay: as above
Method in brief: as §1

[3] = system: SK-OV-3 (Ovarian Carcinoma); assay: as above
Method in brief: as §1

[4] = system: SUP-T1 (T-Lymphoblastic Leukemia); assay: as above
Method in brief: as §1

COLO-829 (Melanoma) = assay: Bliss excess, mean over the matrix (fraction); higher = more synergy
Method in brief: as §1

[5] = system: RT-112 (Bladder Carcinoma); assay: as above
Method in brief: as §1

[6] = system: RKO (Colorectal Carcinoma); assay: as above
Method in brief: as §1

[7] = system: KARPAS-231 (B-Cell Non-Hodgkin's Lymphoma); assay: as above
Method in brief: as §1

[8] = system: MDA-MB-468 (Breast Carcinoma); assay: as above
Method in brief: as §1

[9] = system: LB771-HNC (Head and Neck Carcinoma); assay: as above
Method in brief: as §1

[10] = system: HDLM-2 (Hodgkin's Lymphoma); assay: as above
Method in brief: as §1

[11] = system: CAPAN-1 (Pancreatic Carcinoma); assay: as above
Method in brief: as §1

[12] = system: 8305C (Thyroid Gland Carcinoma); assay: as above
Method in brief: as §1

[13] = system: CAL-54 (Kidney Carcinoma); assay: as above
Method in brief: as §1

[14] = system: Hs-633T (Other Solid Carcinomas); assay: as above
Method in brief: as §1

[15] = system: CAL-51 (Breast Carcinoma); assay: as above
Method in brief: as §1

[16] = system: LU-139 (Small Cell Lung Carcinoma); assay: as above
Method in brief: as §1

[17] = system: SUP-T1 (T-Lymphoblastic Leukemia); assay: as above
Method in brief: as §1

[18] = system: KYSE-410 (Esophageal Squamous Cell Carcinoma); assay: as above
Method in brief: as §1

[19] = system: UMC-11 (Other Solid Carcinomas); assay: as above
Method in brief: as §1
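Wherever Bliss excess, mean over the matrix is given: after 72 h of two-drug dosing.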

| SMILES | combination Emax [1] | combination Emax [2] | combination Emax [3] | combination Emax [4] | Bliss excess (COLO-829 (Melanoma)) | Bliss excess [5] | Bliss excess [6] | Bliss excess [7] | Bliss excess [8] | Bliss excess [9] | Bliss excess [10] | Bliss excess [11] | Bliss excess [12] | Bliss excess [13] | Bliss excess [14] | Bliss excess [15] | Bliss excess [16] | Bliss excess [17] | Bliss excess [18] | Bliss excess [19] |
| --- | --- | --- | --- | --- | --- | --- | --- | --- | --- | --- | --- | --- | --- | --- | --- | --- | --- | --- | --- | --- |
| COc1cccc2c1C(=O)c1c(O)c3c(c(O)c1C2=O)C[C@@](O)(C(=O)CO)C[C@@H]3O[C@H]1C[C@H](N)[C@H](O)[C@H](C)O1 [Doxorubicin] + Cc1cc2ncnn2cc1Nc1ncc2c(n1)n(C1CCOCC1)c(=O)n2C [AZD7648] (first compound max 1 µM, 7x7, partner max 10 µM) | 0.9 | 0.688 | 0.638 | 0.784 | 0.0212 | 0.151 | 0.0473 | 0.0522 | 0.0309 | -0.035 | 0.0106 | 0.0038 | -0.0023 | 0.0594 | 0.118 | 0.121 | 0.0476 | 0.0368 | -0.0448 | 0.07 |
| CN(C)CCCOc1ccc(-c2ccc3ncc4c(c3c2)n(C2CCOCC2)c(=O)n4C)cn1 [AZD0156] + O=C(c1cc(Cc2n[nH]c(=O)c3ccccc23)ccc1F)N1CCN(C(=O)C2CC2)CC1 [Olaparib] (first compound max 3 µM, partner max 3 µM) | 0.228 | 0.693 | 0.228 | 0.432 | -0.0578 | 0.0239 | 0.0736 | 0.0651 | 0.0645 | 0.033 | 0.0319 | -0.0864 | -0.014 | 0.034 | 0.17 | 0.051 | 0.0352 | 0.0598 | 0.0007 | 0.0204 |
| CC1(C)CCC(CN2CCN(c3ccc(C(=O)NS(=O)(=O)c4ccc(NCC5CCOCC5)c([N+](=O)[O-])c4)c(Oc4cnc5[nH]ccc5c4)c3)CC2)=C(c2ccc(Cl)cc2)C1 [Venetoclax] + Cn1cnc2c(F)c(Nc3ccc(Br)cc3Cl)c(C(=O)NOCCO)cc21 [Selumetinib] (first compound max 1 µM, 7x7, partner max 3 µM) | 0.304 | 0.374 | 0.137 | 0.426 | -0.0392 | 0.0554 | 0.0171 | -0.177 | -0.0693 | -0.0555 | -0.0245 | -0.057 | -0.0583 | -0.0466 | -0.0386 | -0.0088 | -0.0357 | -0.0723 | -0.0393 | -0.0424 |
| NC1(C(=O)N[C@@H](CCO)c2ccc(Cl)cc2)CCN(c2ncnc3[nH]ccc23)CC1 [Capivasertib] + C[C@@H]1COCCN1C2=NC(=NC(=C2)C3(CC3)[S@](=N)(=O)C)C4=C5C=CNC5=NC=C4 [AZD6738] (first compound max 10 µM, 7x7, partner max 10 µM) | 0.62 | 0.801 | 0.493 | 0.866 | 0.0403 | -0.0698 | -0.0207 | -0.0334 | -0.0652 | -0.0503 | -0.0451 | -0.0423 | -0.0308 | -0.0374 | -0.0002 | -0.0096 | -0.0083 | -0.0503 | -0.0369 | 0.0252 |
| Cc1cc2ncnn2cc1Nc1ncc2c(n1)n(C1CCOCC1)c(=O)n2C [AZD7648] + CN(C)CCCOc1ccc(-c2ccc3ncc4c(c3c2)n(C2CCOCC2)c(=O)n4C)cn1 [AZD0156] (first compound max 10 µM, 7x7, partner max 1 µM) | 0.317 | 0.483 | 0.403 | 0.482 | -0.0203 | 0.0229 | 0.0317 | 0.0157 | 0.0032 | 0.0059 | -0.0381 | -0.0201 | -0.061 | -0.0384 | 0.0271 | -0.0198 | -0.0306 | -0.0241 | -0.0059 | 0.0196 |
| COc1cccc(OCCCN)c1-c1cc(Nc2cnc(C#N)cn2)n[nH]1 [Prexasertib] + Cc1cc2ncnn2cc1Nc1ncc2c(n1)n(C1CCOCC1)c(=O)n2C [AZD7648] (first compound max 1 µM, 7x7, partner max 10 µM) | 0.95 | 0.879 | 0.842 | 0.821 | 0.0467 | -0.0357 | -0.0193 | 0.0123 | 0.0262 | -0.0088 | -0.0934 | -0.0274 | -0.0726 | -0.0483 | 0.0201 | 0.0069 | -0.015 | -0.0536 | -0.0267 | -0.0692 |
| NC1(C(=O)N[C@@H](CCO)c2ccc(Cl)cc2)CCN(c2ncnc3[nH]ccc23)CC1 [Capivasertib] + CC(=O)c1c(C)c2cnc(Nc3ccc(N4CCNCC4)cn3)nc2n(C2CCCC2)c1=O [Palbociclib] (first compound max 10 µM, 7x7, partner max 10 µM) | 0.415 | 0.722 | 0.417 | 0.677 | -0.0549 | -0.0324 | 0.0625 | -0.044 | -0.0075 | -0.0781 | -0.0222 | -0.0163 | -0.0461 | -0.0279 | 0.0179 | 0.0262 | -0.0256 | -0.0239 | 0.0199 | 0.039 |
| CCc1c2c(nc3ccc(O)cc13)-c1cc3c(c(=O)n1C2)COC(=O)[C@]3(O)CC [SN-38] + CN(C)CCCOc1ccc(-c2ccc3ncc4c(c3c2)n(C2CCOCC2)c(=O)n4C)cn1 [AZD0156] (first compound max 0.3 µM, 7x7, partner max 1 µM) | 0.797 | 0.727 | 0.517 | 0.853 | -0.0257 | 0.0988 | 0.0263 | 0.0202 | 0.0309 | -0.031 | -0.0809 | -0.0341 | 0.0088 | 0.005 | 0.153 | 0.0611 | -0.118 | -0.0214 | -0.0542 | 0.0224 |
| CS(=O)(=O)CCNCc1ccc(-c2ccc3ncnc(Nc4ccc(OCc5cccc(F)c5)c(Cl)c4)c3c2)o1 [Lapatinib] + C[C@@H](Oc1cc(-c2cnn(C3CCNCC3)c2)cnc1N)c1c(Cl)ccc(F)c1Cl [Crizotinib] (first compound max 10 µM, 7x7, partner max 10 µM) | 0.941 | 0.708 | 0.776 | 0.875 | -0.0345 | 0.0155 | -0.0977 | 0.0324 | -0.0582 | -0.0398 | -0.0545 | -0.0937 | -0.169 | -0.0801 | -0.0338 | -0.0029 | -0.0147 | -0.0469 | -0.0183 | -0.0964 |
| C=CCn1c(=O)c2cnc(Nc3ccc(N4CCN(C)CC4)cc3)nc2n1-c1cccc(C(C)(C)O)n1 [AZD1775] + O=C(c1cc(Cc2n[nH]c(=O)c3ccccc23)ccc1F)N1CCN(C(=O)C2CC2)CC1 [Olaparib] (first compound max 1 µM, partner max 10 µM) | 0.705 | 0.781 | 0.547 | 0.879 | -0.0137 | 0.0461 | -0.0119 | -0.0554 | -0.0449 | -0.0622 | -0.0536 | -0.0123 | -0.0762 | -0.0341 | -0.0188 | -0.0122 | -0.0775 | -0.017 | -0.04 | 0.0135 |
| Cc1cc2ncnn2cc1Nc1ncc2c(n1)n(C1CCOCC1)c(=O)n2C [AZD7648] + CCN(CCO)CCCOc1ccc2c(Nc3cc(CC(=O)Nc4cccc(F)c4)[nH]n3)ncnc2c1 [AZD2811] (first compound max 10 µM, 7x7, partner max 1 µM) | 0.49 | 0.529 | 0.367 | 0.641 | -0.0034 | 0.0796 | 0.0369 | -0.0041 | -0.0442 | 0 | -0.0457 | -0.0304 | -0.0159 | 0.0156 | 0.0211 | 0.076 | 0.0273 | 0.11 | -0.0046 | -0.0884 |
| COc1nnc2ccc(N3CCC(c4ccc(OCCN5CCN(C)C(=O)[C@H]5C)cc4)CC3)nn12 [AZD5153] + CC1(C)CCC(CN2CCN(c3ccc(C(=O)NS(=O)(=O)c4ccc(NCC5CCOCC5)c([N+](=O)[O-])c4)c(Oc4cnc5[nH]ccc5c4)c3)CC2)=C(c2ccc(Cl)cc2)C1 [Venetoclax] (first compound max 1 µM, 7x7, partner max 1 µM) | 0.239 | 0.464 | 0.383 | 0.745 | -0.0356 | -0.0479 | 0.0122 | -0.135 | – | -0.0704 | -0.0645 | -0.0874 | -0.0901 | -0.0374 | -0.0373 | -0.0513 | 0.0391 | -0.0766 | -0.0898 | 0.0234 |
| C[C@@H](c1ccc2nccn2c1)n1nnc2ncc(-c3cnn(C)c3)nc21 [Savolitinib] + Cc1c2c(nn1C)CSCc1cc(n(C)n1)CSc1cc(c3ccccc3c1)OCCCc1c(C(=O)O)n(C)c3c-2c(Cl)ccc13 [AZD5991] (first compound max 1 µM, 7x7, partner max 1 µM) | 0.602 | 0.195 | 0.112 | 0.138 | -0.0075 | -0.0265 | -0.0067 | -0.0258 | – | -0.054 | -0.0099 | -0.0702 | -0.0781 | -0.0337 | -0.0551 | -0.0115 | -0.0213 | -0.0571 | -0.0749 | -0.0026 |
| COc1cc2ncnc(Nc3ccc(F)c(Cl)c3)c2cc1OCCCN1CCOCC1 [Gefitinib] + CC(C)n1c(=O)n(C)c2cnc3cc(F)c(-c4ccc(OCCCN5CCCCC5)nc4)cc3c21 [AZD1390] (first compound max 10 µM, 7x7, partner max 0.3 µM) | 0.176 | 0.421 | 0.285 | 0.382 | -0.0599 | -0.0548 | -0.0362 | -0.0423 | – | -0.0648 | -0.0768 | -0.0286 | -0.147 | -0.0718 | -0.0684 | -0.0485 | -0.0251 | -0.0389 | -0.0779 | -0.0399 |
